For experiment [1], the system named is human GLP-1R A316T versus WT. The experiment can be described thus: Insulin secretion assay in mouse islets. It counts as cell-based. As to conditions: chow-fed mouse islets; 100 nM; 16 hours; n = 4; Fig. 5H. On the procedure: Purified mouse islets used for insulin secretion assays were treated in 24-well nonadherent plates. Eight islets were used per replicate with three technical replicates per condition. For acute studies, islets were preincubated for 1 hour in KRBH buffer containing 0.1% (w/v) bovine serum albumin (BSA) (10775835001, Roche) and 3 mM glucose before incubation with 11 mM glucose ± 100 nM GLP-1RAs or the GLP-1R antagonist exendin-9 in KRBH buffer in a shaking 37°C water bath (80 rpm) for 1 hour. For overnight studies, preincubation was carried out in RPMI 1640 medium containing FBS, P/S, and 3 mM glucose, followed by treatment with medium supplemented with 11 mM glucose ± GLP-1RAs for 16 hours. Supernatants containing secreted insulin were collected, centrifuged at 1000 rpm for 1 min, and transferred to fresh tubes. For total insulin content, islets were lysed using acidic ethanol (75% ethanol, 1.5 mM HCl). Lysates were sonicated 3× 10 s each in a water bath and centrifuged at 10,000g for 10 min, and supernatants were collected. For human islets, the same experiment was performed with islets previously transduced with pAV-SNAP/FLAG-hGLP1R^WT or ^A316T adenoviruses (generated by VectorBuilder) at a multiplicity of infection of 1, 24 hours before the start of experiments. Insulin secretion assays with the human EndoC-βH3 cell line were performed following 3 weeks of treatment with 4-hydroxytamoxifen as above, followed by transduction with pAV-SNAP/FLAG-hGLP1R^WT or ^A316T adenoviruses, with insulin secretion assessed as previously described ([54]), with the following modifications: After preincubation with 0.5 mM glucose KRBH buffer, cells were stimulated with 15 mM glucose ± exendin-4 for 60 min. Total and secreted insulin samples from islets and cells were stored at −20°C until quantification using an Insulin Ultra-Sensitive HTRF kit (#62IN2PEG, Revvity) in a PHERAstar plate reader (BMG Labtech), according to the manufacturer’s instructions.

Experiment [2] relates to SNAP/FLAG-hGLP1R^A316T versus ^WT. The experiment is described as follows: Nb37 bystander NanoBiT assay (plasma membrane and endosomal GLP-1R activity). It counts as cell-based, human. The note with it: log(Emax/EC50), Fig. 8B,C; for Agonist-induced endosomal A316T activity versus WT: n = 4 (GLP-1), n = 3 (Ex-4). On the procedure: Nb37 bystander NanoBiT assays
INS-1 832/3 Glp1r-/- cells were seeded in 6-well plates and co-transfected with the following plasmids:
200 ng pSNAP/FLAG-hGLP1RWT or A316T, 500 ng Gαs (human, short isoform), 500 ng Gβ1 (human), 500 ng Gγ2 (human), 100 ng RIC8B (human, isoform 2), and either 100 ng LgBiT-CAAX (KRAS CAAX motif N-terminally fused with LgBiT) or 500 ng Endofin-LgBiT (Endofin FYVE domain C-terminally fused with LgBiT), plus 100 ng (plasma membrane assay) or 500 ng (endosomal assay) SmBiT-Nb37 [Nb37 cDNA synthesised by GenScript C- terminally fused to SmBiT with a 15 amino acid flexible linker (123) ] and adjusted for total DNA with pcDNA3.1 for the LgBiT-CAAX transfection. 24 hours after transfection, cells were exposed to NanoGlo Live Cell Reagent (Promega) with furimazine (1:20 dilution) and bioluminescence read in a Flexstation 3 plate reader for 8 min before and 30 min after stimulation by […]
AUCs were calculated for each agonist concentration and fitted to log(agonist) versus response four-parameter curves using GraphPad Prism 10.1.2, with logEC50 (potency) and Emax (efficacy) calculated for each replicate dose response curve. Baseline endosomal over plasma membrane bioluminescence ratios were also calculated.
GLP- 1R conformational ECD opening time resolved-fluorescence resonance energy transfer (TR- […]
INS-1 832/3 Glp1r-/- SNAP/FLAG-hGLP1RWT or A316T cells were labelled with SNAP-Lumi4- Tb (Revvity; 40 nM, 60 min at 37°C in complete medium). After washing to remove unbound probe, cells were resuspended in HBSS ± 100 nM plasma membrane dye NR12A (a gift from Prof Andrey Klymchenko, University of Strasbourg, France) for 5 min before washing again. Labelled cells were transferred to 96-well half-area white plates and baseline TR-FRET signal from Lumi-4Tb (donor) and NR12A (acceptor) recorded for 5 min at 37°C using a Flexstation 3 plate reader with the following settings: λex = 335 nm, λem = 490 and 590 n m, delay 50 µs , integration time 300 µs. GLP-1 was then added at serial doses, and […]

Experiment [3] deals with hGLP1R^A316T/A316T versus hGLP1R^+/+ mice. The experiment is described as follows: IPGTT acutely and 6 hours after GLP-1RA, chow-fed homozygous mice. It counts as in vivo, mouse. The note with it: chow diet; for Agonist-specific glycemic response (ΔAUC), 6-hour time point, A316T/A316T versus +/+: IPGTT 6 hours postadministration, n = 9; for Agonist-specific glycemic response (ΔAUC), 6-hour time point, A316T/A316T versus +/+ / Agonist-specific glycemic response (ΔAUC, agonist- minus vehicle-treated AUC), acute, A316T/A316T versus +/+: Fig. 1J,K; for Agonist-specific glycemic response (ΔAUC, agonist- minus vehicle-treated AUC), acute, A316T/A316T versus +/+: acute IPGTT, n = 9 per genotype. How it is done:
To examine acute and prolonged glycemic responses to GLP-1RAs, animals were fasted for 2 hours, starting at 8 a.m. on the morning of the experiments, before IPGTTs. GLP-1RAs were then coadministered at the indicated concentrations with 20% (w/v) D-glucose via intraperitoneal injection at weight-adjusted volumes. Baseline glucose readings were taken via tail venipuncture, and subsequent readings were taken at various time points after glucose ± GLP-1RA administration as for the OGTTs (0-hour acute IPGTTs). For GLP-1RAs with shorter half-lives (exendin-4 and exendin-F1), IPGTTs were repeated 6 hours after the start of the initial IPGTT, with continued fasting. For the extended half-life GLP-1RA semaglutide, IPGTTs were performed 24 and 72 hours after GLP-1RA administration, with access to food restored at the end of each IPGTT. The in vivo IPGTT studies were performed with a crossover design, with each mouse receiving vehicle and each GLP-1RA treatment with washout periods of at least 1 week between the different GLP-1RA treatments.

Experiment [4] has the same test system. The experiment can be described thus: IPGTT after GLP-1RA, HFHS-fed homozygous mice. It counts as in vivo, mouse. As to conditions: HFHS diet; 2 nmol/kg ip; acute and 6 hours; n = 9; Fig. 2G-J. How it is done:
All animal procedures were approved by the British Home Office under the UK animals (Scientific Procedures) Act 1986 (Project License number PP7151519 to A. Martinez-Sanchez, Imperial College London, UK) and from the local ethical committee (Animal Welfare and Ethics Review Board) at the Central Biological Services unit of Imperial College London. Animals were housed in groups of up to four adult mice in individually ventilated cages under controlled conditions at 21° to 23°C with 12-hour:12-hour light-to-dark cycles (lights on at 07:00). Ad libitum access to water and feed was provided unless otherwise stated. Lean mice were fed a standard chow diet [RM1 (E); Special Diet Services]. For HFHS diet studies, animals were put on a 58 kcal % fat and sucrose diet (D12331, Research Diets Inc.) ad libitum for 10 to 14 weeks before experiments.
To examine acute and prolonged glycemic responses to GLP-1RAs, animals were fasted for 2 hours, starting at 8 a.m. on the morning of the experiments, before IPGTTs. GLP-1RAs were then coadministered at the indicated concentrations with 20% (w/v) D-glucose via intraperitoneal injection at weight-adjusted volumes. Baseline glucose readings were taken via tail venipuncture, and subsequent readings were taken at various time points after glucose ± GLP-1RA administration as for the OGTTs (0-hour acute IPGTTs). […]

As for exendin-4, the “Agonist-mediated increase in glucose-stimulated insulin secretion (fold over 11 mM glucose) following overnight exposure, A316T/A316T versus +/+ islets” value in experiment [1] is given as “complete loss of the potentiating effect”. Further, in experiment [2], the “Plasma membrane activity, A316T versus WT” value was “without changes” and the “Agonist-induced endosomal A316T activity versus WT” value is given as “significantly reduced”. In experiment [3] (2 nmol/kg ip), the “Agonist-specific glycemic response (ΔAUC), 6-hour time point, A316T/A316T versus +/+” value was “paradoxical increase in blood glucose levels compared to vehicle” and the “Agonist-specific glycemic response (ΔAUC, agonist- minus vehicle-treated AUC), acute, A316T/A316T versus +/+” value was “significantly reduced”. For the same substance, in experiment [4], the “IPGTT glucose responses, A316T/A316T versus +/+” value is “slightly more pronounced desensitization”.
GLP-1(7-36)NH2: in experiment [2], the “Plasma membrane activity, A316T versus WT” value was “without changes” and the “Agonist-induced endosomal A316T activity versus WT” value was “tendency to be increased”.
For the substance exendin-F1, the “Agonist-mediated increase in glucose-stimulated insulin secretion (fold over 11 mM glucose) following overnight exposure, A316T/A316T versus +/+ islets” value in experiment [1] is given as “no significantly detrimental effect”. In experiment [3] (2 nmol/kg ip), the “Agonist-specific glycemic response (ΔAUC), 6-hour time point, A316T/A316T versus +/+” value was “absent” and the “Agonist-specific glycemic response (ΔAUC, agonist- minus vehicle-treated AUC), acute, A316T/A316T versus +/+” value was “similarly reduced”. The “IPGTT glucose responses (AUC), A316T/A316T versus +/+” value in experiment [3] (2 nmol/kg ip, acutely and 6 hours postagonist, Fig. 1F-I) is “without reaching statistical significance”. Also, in experiment [3] (both mouse genotypes), the “Desensitization at the 6-hour IPGTT versus exendin-4” value is recorded as “reduced desensitization”. Further, the “IPGTT glucose responses, A316T/A316T versus +/+” value in experiment [4] is “slightly more pronounced desensitization”.

(Values after PMC13267291, “In vivo functional profiling and structural characterization of the human GLP1R A316T variant” (Science Advances, 2026).)
